The source made the active and inactive calls. The rule behind the calls is not given here.
Assays:
[1] = target: T1, Enoyl-[acyl-carrier-protein] reductase [NADH] (Mycobacterium tuberculosis) (UniProt P9WGR1); experiment: inhibition of Mycobacterium tuberculosis InhA at 100 uM after 20 mins by fluorometric assay
T1 sequence (whole entry): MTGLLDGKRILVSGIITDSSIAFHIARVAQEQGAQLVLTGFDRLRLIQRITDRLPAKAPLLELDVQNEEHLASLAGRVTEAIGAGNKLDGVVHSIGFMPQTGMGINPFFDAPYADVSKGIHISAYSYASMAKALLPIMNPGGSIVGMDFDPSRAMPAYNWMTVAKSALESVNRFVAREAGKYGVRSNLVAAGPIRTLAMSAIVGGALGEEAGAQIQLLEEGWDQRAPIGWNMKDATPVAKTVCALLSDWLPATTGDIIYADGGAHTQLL

[2] = target: T2, Enoyl-[acyl-carrier-protein] reductase [NADH] (Mycobacterium tuberculosis, UniProt P9WGR1); experiment: inhibition of Mycobacterium tuberculosis InhA after 20 mins by fluorometric assay
T2 sequence (P9WGR1 whole entry): T1 sequence (whole entry)

C/C=C(\C)c1cc(O)c(C)c(O)c1C(=O)Oc1cc(/C(C)=C/C)c(C(=O)O)c(O)c1C
Activity [1]: inactive

C/C=C(\C)c1cc(O)c(C)c(OC(=O)c2c(/C(C)=C/C)cc(O)c(C)c2O)c1 [AGONODEPSIDE A]
IC50 [2]: 75 µM
